From patent US20120028988A1, “USE OF PYRIDAZINONE COMPOUND FOR CONTROL OF HARMFUL ARTHROPOD PESTS” (SUMITOMO CHEMICAL COMPANY, LIMITED, priority 2009, published 2012)

System: Plutella xylostella
Assay: whole plant or invertebrate
Format: in vivo
Conditions: 120 h, 500 ppm active ingredient, 20 mL/cup sprayed on Brassicae oleracea, second-stage larvae, 25° C., after 5 days, read-out: mortality of the insects
Method: (§1) The preparation of the present composition obtained by Preparation Example 14 was diluted with water so as to have a concentration of active ingredient of 500 ppm, to prepare a drug solution for test.
The drug solution for test was sprayed at a rate of 20 mL/cup on Brassicae oleracea at the 3 leaf stage planted in a polyethylene cup. After the drug solution dried, leaves and stems were cut out and placed in a 50 mL cup. 5 second-stage larvae of Plutella xylostella were released there, and the lid was closed. This cup was stored at 25° C., and the number of surviving insects was counted after 5 days, and the mortality of the insects was calculated by the following equation.
(§2) Mortality of Insects (%)=(Number of Dead Insects/Number of Test Insects)×100

Structure (SMILES)	mortality at 500 ppm
Cc1ccc(-c2ccc(Cl)cc2)cc1-c1c(O)cnn(C)c1=O [I-a-59, 4-[5-(4-chlorophenyl)-2-methylphenyl]-5-hydroxy-2-methyl-3(2H)-pyridazinone]	≥ 80%
Cc1ccc(-c2ccc(F)cc2)cc1-c1c(O)c(C)nn(C)c1=O [I-a-46, 4-[5-(4-fluorophenyl)-2-methylphenyl]-5-hydroxy-2,6-dimethyl-3(2 H)-pyridazinone]	≥ 80%

System: Blattalla germanica
Assay: Test Example 6: treated filter paper with sucrose, Blattalla germanica male adults, mortality index
Format: in vivo
Conditions: 500 ppm active ingredient, 0.7 mL on filter paper with sucrose; 2 male adults; after 6 days
Method: as §1
A filter paper with a diameter of 5.5 cm was placed in the bottom of a polyethylene cup, then 0.7 mL of the above drug solution for test was added dropwise on the filter paper, and 30 mg of sucrose was uniformly added as a feed. 2 male adults of Blattalla germanica were released in the polyethylene cup, and the lid was closed. The number of dead insects was calculated after 6 days.
The mortality was calculated by the following equation and was evaluated by the indexes of 4: mortality 100%, 2:50%, and 0:0%.
Mortality (%)=(Number of Dead Insects/Number of Test Insects)×100

Structure (SMILES)	index (mortality)
CCc1ccccc1-c1c(OC(=O)c2ccccc2)cnn(C)c1=O [I-b-1, 5-benzoyloxy-4-(2-ethylphenyl)-2-methyl-3(2H)-pyridazinone]	4 (mortality 100%)

System: Spodoptera litura
Assay: whole plant or invertebrate
Format: in vivo
Conditions: 144 h, 500 ppm active ingredient, 20 mL/cup sprayed on Brassicae oleracea, fourth-stage larvae, 25° C., after 6 days, read-out: mortality of the insects
Method: as §1
The drug solution for test was sprayed at a rate of 20 mL/cup on Brassicae oleracea at the 5 to 6 leaf stages planted in a polyethylene cup. After the drug solution dried, 10 fourth-stage larvae of Spodoptera litura were released. Brassicae oleracea at the 5 to 6 leaf stage planted in this polyethylene cup was covered with an another polyethylene cup (volume of 400 mL). This was stored at 25° C., and the number of surviving insects was counted after 6 days, then the mortality of the insects was calculated by the following equation.
as §2

Structure (SMILES)	mortality at 500 ppm
Cc1ccc(-c2ccc(Cl)cc2)cc1-c1c(O)cnn(C)c1=O [I-a-59, 4-[5-(4-chlorophenyl)-2-methylphenyl]-5-hydroxy-2-methyl-3(2H)-pyridazinone]	≥ 80%

System: Frankliniella occidentalis
Assay: Test Example 10: spray on cucumber, Frankliniella occidentalis larvae on cut leaves, preventive value
Format: in vivo
Conditions: 500 ppm active ingredient, 10 mL/cup sprayed on cucumber; larvae on cut first true leaves; after 7 days
Method: The drug solution for test was sprayed at a rate of 10 mL/cup on cucumber at the second true leaf-expansion stage planted in a polyethylene cup. After the drug solution dried, the first true leaves were cut out and placed in a polyethylene cup, then 20 larvae of Frankliniella occidentalis were released, and the lid was closed. After 7 days, the number of surviving larvae on the leaves of cucumber was investigated, and the preventive value was calculated by the following equation. Preventive Value (%)={1−(Cb×Tai)/(Cai×Tb)}×100 Here, the letters in the equation represent the following meaning. Cb: Number of Insects in Untreated Area Before Treatment Cai: Number of Insects in Untreated Area at Observation Tb: Number of Insects in Treated Area Before Treatment Tai: Number of Insects in Treated Area at Observation

Structure (SMILES)	preventive value
Cc1ccc(-c2ccc(Cl)cc2)cc1-c1c(O)c(C)nn(C)c1=O [I-a-40]	≥ 90%

System: not given
Assay: not given
Conditions: not given

Structure (SMILES)	melting point
CCc1cc(C)c(-c2ccc(Cl)cc2)c(CC)c1-c1c(O)c(C)nn(C)c1=O [I-a-48, 4-[3-(4-chlorophenyl)-2,6-diethyl-4-methylphenyl)-5-hydroxy-2,6-dimethyl-3(2H)-pyridazinone]	248 to 250 °C
Cc1ccc(Br)cc1-c1c(O)c(C)nn(C)c1=O [I-a-45, 4-(5-bromo-2-methylphenyl)-5-hydroxy-2,6-dimethyl-3(2H)-pyridazinone]	217 to 218 °C
C#Cc1cc(C)cc(C)c1-c1c(O)c(C)nn(C)c1=O [I-a-44, 4-(2-ethynyl-4,6-dimethylphenyl)-5-hydroxy-2,6-dimethyl-3(2H)-pyridazinone]	179 to 181 °C
CCc1cc(C)c(Br)c(CC)c1-c1c(OC(=O)OC)c(C)nn(C)c1=O [I-b-50, 4-(3-bromo-2,6-diethyl-4-methylphenyl)-5-methoxycarbonyloxy-2,6-dimethyl-3(2H)-pyridazinone]	113 to 115 °C

Continued, values first:

melting point	Structure (SMILES)
225 to 226 °C	CCc1cc(CC)c(-c2c(O)c(C)nn(C)c2=O)c(CC)c1Br [I-a-50, 4-(3-bromo-2,4,6-triethylphenyl)-5-hydroxy-2,6-dimethyl-3(2H)-pyridazinone]
225 to 226 °C	CCc1cc(CC)c(-c2c(O)c(C)nn(C)c2=O)c(CC)c1Cl [I-a-49, 4-(3-chloro-2,4,6-triethylphenyl)-5-hydroxy-2,6-dimethyl-3(2H)-pyridazinone]
266 to 267 °C	CCc1c(Cl)c(CC)c(-c2c(O)c(C)nn(C)c2=O)c(CC)c1Cl [I-a-71, 4-(3,5-dichloro-2,4,6-triethylphenyl)-5-hydroxy-2,6-dimethyl-3(2H)-pyridazinone]
217 to 219 °C	CCc1cc(CC)c(-c2c(O)c(C)nn(C)c2=O)c(CC)c1I [I-a-72, 5-hydroxy-2,6-dimethyl-4-(2,4,6-triethyl-3-iodophenyl)-3(2H)-pyridazinone]
235 to 236 °C	CCc1cc(C)c(Br)c(CC)c1-c1c(O)c(C)nn(C)c1=O [I-a-47, 4-(3-bromo-2,6-diethyl-4-methylphenyl)-5-hydroxy-2,6-dimethyl-3(2H)-pyridazinone]
193 to 195 °C	CCc1cc(C)c(F)c(CC)c1-c1c(O)c(C)nn(C)c1=O [I-a-74, 4-(2,6-diethyl-3-fluoro-4-methylphenyl)-5-hydroxy-2,6-dimethyl-3(2H)-pyridazinone]
